# Tests used:
# Type in all cases: in vivo
# [1] = tested on: Abutilon theophrasti; experiment: Post-emergence herbicidal effect; settings: assessed visually after about 3 weeks vs untreated controls
# Method in brief: (§1)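 Percent herbicidal action was judged by eye roughly 3 weeks post-application, 0% matching control plants and 100% meaning plant death. Seedlings, greenhouse-grown in sandy loam, received the spray at one leaf.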
# [2] = tested on: Veronica persica; experiment: Post-emergence herbicidal effect; settings: assessed visually after about 3 weeks vs untreated controls
# Method in brief: as §1
# [3] = tested on: Viola tricolor; experiment: Post-emergence herbicidal effect; settings: assessed visually after about 3 weeks vs untreated controls
# Method in brief: as §1
# [4] = tested on: Stellaria media; experiment: Post-emergence herbicidal effect; settings: assessed visually after about 3 weeks vs untreated controls
# Method in brief: as §1
# [5] = tested on: Ipomoea purpurea; experiment: Post-emergence herbicidal effect; settings: assessed visually after about 3 weeks vs untreated controls
# Method in brief: as §1
# [6] = tested on: Polygonum convolvulus; experiment: Post-emergence herbicidal effect; settings: assessed visually after about 3 weeks vs untreated controls
# Method in brief: as §1
# [7] = tested on: Echinochloa crus-galli; experiment: Post-emergence herbicidal effect; settings: 320 g/ha, assessed visually after about 3 weeks vs untreated controls
# Method in brief: as §1
# [8] = tested on: Matricaria inodora; experiment: Post-emergence herbicidal effect; settings: assessed visually after about 3 weeks vs untreated controls
# Method in brief: as §1
# [9] = tested on: Lolium multiflorum; experiment: Post-emergence herbicidal effect; settings: assessed visually after about 3 weeks vs untreated controls
# Method in brief: as §1
# [10] = tested on: Amaranthus retroflexus; experiment: Post-emergence herbicidal effect; settings: assessed visually after about 3 weeks vs untreated controls
# Method in brief: as §1
# [11] = tested on: Veronica persica; experiment: Pre-emergence herbicidal effect; settings: scored visually after 3 weeks
# Method in brief: (§2)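 Using soil-surface application before emergence, the compound was delivered in a water volume equating to 600 to 800 L/ha. Plants grew in a greenhouse for 3 weeks; activity was then rated visually in percent against untreated plants, with 100% for plants killed.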
# [12] = tested on: Viola tricolor; experiment: Pre-emergence herbicidal effect; settings: scored visually after 3 weeks
# Method in brief: as §2
# [13] = tested on: Stellaria media; experiment: Pre-emergence herbicidal effect; settings: scored visually after 3 weeks
# Method in brief: as §2
# [14] = tested on: Setaria viridis; experiment: Pre-emergence herbicidal effect; settings: scored visually after 3 weeks
# Method in brief: as §2
# [15] = tested on: Polygonum convolvulus; experiment: Pre-emergence herbicidal effect; settings: scored visually after 3 weeks
# Method in brief: as §2
# [16] = tested on: Avena fatua; experiment: Pre-emergence herbicidal effect; settings: Dosage 320 g/ha, scored visually after 3 weeks
# Method in brief: as §2
# [17] = tested on: Matricaria inodora; experiment: Pre-emergence herbicidal effect; settings: scored visually after 3 weeks
# Method in brief: as §2
# [18] = tested on: Alopecurus myosuroides; experiment: Pre-emergence herbicidal effect; settings: scored visually after 3 weeks
# Method in brief: as §2
# [19] = tested on: Amaranthus retroflexus; experiment: Pre-emergence herbicidal effect; settings: scored visually after 3 weeks
# Method in brief: as §2
# [20] = tested on: Alopecurus myosuroides; experiment: Post-emergence herbicidal effect; settings: 320 g/ha, assessed visually after about 3 weeks vs untreated controls
# Method in brief: as §1
# [21] = tested on: Abutilon theophrasti; experiment: Pre-emergence herbicidal effect; settings: Dosage 320 g/ha, scored visually after 3 weeks
# Method in brief: as §2
# [22] = tested on: Lolium multiflorum; experiment: Pre-emergence herbicidal effect; settings: scored visually after 3 weeks
# Method in brief: as §2
# [23] = tested on: Setaria viridis; experiment: Post-emergence herbicidal effect; settings: assessed visually after about 3 weeks vs untreated controls
# Method in brief: as §1
# [24] = tested on: Echinochloa crus-galli; experiment: Pre-emergence herbicidal effect; settings: Dosage 320 g/ha, scored visually after 3 weeks
# Method in brief: as §2
SMILES,post-emergence efficacy ABUTH ([1]; 320 g/ha) [%],post-emergence efficacy VERPE ([2]; 320 g/ha) [%],post-emergence efficacy VIOTR ([3]; 80 g/ha) [%],post-emergence efficacy VIOTR ([3]; 320 g/ha) [%],post-emergence efficacy STEME ([4]; 80 g/ha) [%],post-emergence efficacy STEME ([4]; 320 g/ha) [%],post-emergence efficacy PHBPU ([5]; 320 g/ha) [%],post-emergence efficacy AMARE ([10]; 320 g/ha) [%],VERPE pre-emergence efficacy (herbicidal activity) ([11]; Dosage 320 g/ha) [%],VIOTR pre-emergence efficacy (herbicidal activity) ([12]; Dosage 80 g/ha) [%],VIOTR pre-emergence efficacy (herbicidal activity) ([12]; Dosage 320 g/ha) [%],STEME pre-emergence efficacy (herbicidal activity) ([13]; Dosage 80 g/ha) [%],STEME pre-emergence efficacy (herbicidal activity) ([13]; Dosage 320 g/ha) [%],SETVI pre-emergence efficacy (herbicidal activity) ([14]; Dosage 320 g/ha) [%],POLCO pre-emergence efficacy (herbicidal activity) ([15]; Dosage 320 g/ha) [%],MATIN pre-emergence efficacy (herbicidal activity) ([17]; Dosage 80 g/ha) [%],MATIN pre-emergence efficacy (herbicidal activity) ([17]; Dosage 320 g/ha) [%],ALOMY pre-emergence efficacy (herbicidal activity) ([18]; Dosage 320 g/ha) [%],AMARE pre-emergence efficacy (herbicidal activity) ([19]; Dosage 80 g/ha) [%],AMARE pre-emergence efficacy (herbicidal activity) ([19]; Dosage 320 g/ha) [%],further results
Cc1cc2c(s1)CCCC2Nc1ncc(SC(F)(F)F)c(C)n1 (racemic) [compound 80],90,100,100,100,100,100,100,100,100,90,100,100,100,100,100,70,90,70,100,100,post-emergence efficacy ABUTH ([1]; 80 g/ha): 80%; post-emergence efficacy VERPE ([2]; 80 g/ha): 90%; post-emergence efficacy PHBPU ([5]; 80 g/ha): 90%; post-emergence efficacy POLCO ([6]; 320 g/ha): 60%; post-emergence efficacy ECHCG [7]: 70%; post-emergence efficacy MATIN ([8]; 80 g/ha): 70%; post-emergence efficacy MATIN ([8]; 320 g/ha): 90%; post-emergence efficacy LOLMU ([9]; 80 g/ha): 70%; post-emergence efficacy LOLMU ([9]; 320 g/ha): 90%; post-emergence efficacy AMARE ([10]; 80 g/ha): 100%; VERPE pre-emergence efficacy (herbicidal activity) ([11]; Dosage 80 g/ha): 100%; SETVI pre-emergence efficacy (herbicidal activity) ([14]; Dosage 80 g/ha): 100%; POLCO pre-emergence efficacy (herbicidal activity) ([15]; Dosage 80 g/ha): 100%; AVEFA pre-emergence efficacy (herbicidal activity) [16]: 60%
Cc1cc2c(o1)CCCC2Nc1ncc(C(F)(F)F)c(N)n1 (racemic) [compound 28],–,–,–,90,–,–,–,–,100,90,100,100,100,100,100,90,100,90,100,100,post-emergence efficacy ALOMY [20]: 100%; ABUTH pre-emergence efficacy (herbicidal activity) [21]: 80%; VERPE pre-emergence efficacy (herbicidal activity) ([11]; Dosage 80 g/ha): 100%; LOLMU pre-emergence efficacy (herbicidal activity) ([22]; Dosage 320 g/ha): 100%
Cc1cc2c(s1)CCCC2Nc1nc(N)c(-c2cncc(Cl)c2)c(C(F)F)n1 (racemic) [compound 300],–,–,–,–,60,90,60,90,–,–,100,80,100,70,–,80,90,–,–,100,post-emergence efficacy ALOMY [20]: 70%
Nc1nc(NC2CCc3ccsc32)ncc1C(F)(F)F (racemic) [compound 29],–,–,80,90,90,100,–,–,90,100,100,100,100,100,–,100,100,100,60,100,post-emergence efficacy SETVI ([23]; 80 g/ha): 90%; post-emergence efficacy SETVI ([23]; 320 g/ha): 100%; post-emergence efficacy POLCO ([6]; 320 g/ha): 90%; post-emergence efficacy ECHCG [7]: 100%; post-emergence efficacy LOLMU ([9]; 320 g/ha): 80%; SETVI pre-emergence efficacy (herbicidal activity) ([14]; Dosage 80 g/ha): 90%; AVEFA pre-emergence efficacy (herbicidal activity) [16]: 100%; ECHCG pre-emergence efficacy (herbicidal activity) [24]: 100%; LOLMU pre-emergence efficacy (herbicidal activity) ([22]; Dosage 320 g/ha): 100%
C/C(=N\O)c1cnc(NC2CCCc3sc(Cl)cc32)nc1C (racemic) [compound 260],90,100,70,90,80,100,90,90,100,100,100,100,100,100,100,100,100,90,100,100,post-emergence efficacy ABUTH ([1]; 80 g/ha): 80%; post-emergence efficacy PHBPU ([5]; 80 g/ha): 70%; post-emergence efficacy SETVI ([23]; 320 g/ha): 100%; post-emergence efficacy POLCO ([6]; 80 g/ha): 60%; post-emergence efficacy POLCO ([6]; 320 g/ha): 60%; post-emergence efficacy ECHCG [7]: 100%; post-emergence efficacy MATIN ([8]; 80 g/ha): 70%; post-emergence efficacy MATIN ([8]; 320 g/ha): 90%; post-emergence efficacy LOLMU ([9]; 320 g/ha): 70%; post-emergence efficacy AMARE ([10]; 80 g/ha): 90%; VERPE pre-emergence efficacy (herbicidal activity) ([11]; Dosage 80 g/ha): 100%; SETVI pre-emergence efficacy (herbicidal activity) ([14]; Dosage 80 g/ha): 50%; POLCO pre-emergence efficacy (herbicidal activity) ([15]; Dosage 80 g/ha): 80%; AVEFA pre-emergence efficacy (herbicidal activity) [16]: 90%; ECHCG pre-emergence efficacy (herbicidal activity) [24]: 100%; LOLMU pre-emergence efficacy (herbicidal activity) ([22]; Dosage 80 g/ha): 50%; LOLMU pre-emergence efficacy (herbicidal activity) ([22]; Dosage 320 g/ha): 100%; ALOMY pre-emergence efficacy (herbicidal activity) ([18]; Dosage 80 g/ha): 70%
Cc1cc2c(s1)CCCC2Nc1nc(N)c(C#N)c(C(C)F)n1 (racemic) [compound 320],80,100,–,100,–,60,–,60,100,–,100,–,100,100,100,–,100,–,–,100,post-emergence efficacy SETVI ([23]; 320 g/ha): 60%; post-emergence efficacy ALOMY [20]: 80%
